From patent publication US20230073777A1, “CYCLIC-AMP RESPONSE ELEMENT BINDING PROTEIN (CBP) AND/OR ADENOVIRAL E1A BINDING PROTEIN OF 300 KDA (P300) DEGRADATION COMPOUNDS AND METHODS OF USE” (CULLGEN (SHANGHAI), INC., priority 2019, published 2023)
pIC50: −log10 of the molar value. Like-named read-outs stand apart in the source and are kept apart here. One block for each compound: values may come before it.

Key:
P300 = P300 (Homo sapiens, UniProt Q09472); assay: Immunoblotting of P300 protein levels in LNCaP or 22RV1 cells; type: cell-based; set-up: LNCaP or 22RV1 cells that express CBP/P300 proteins were treated with GNE-781 or the bivalent compounds; endogenous in cells; host or cells: LNCaP (clone FGC) or 22RV1 cells; conditions: read-out: Degradation (10 nM)
Summary of the method: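 P300/CBP levels quantified by chemiluminescent immunoblot band densitometry, normalized against tubulin or vinculin loading controls. Lysates came from LNCaP or 22RV1 cells exposed to compounds or DMSO vehicle for indicated times.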

LNCaP cells = assay: LNCaP cell viability assay (CellTiter-Glo); type: cell-based; conditions: for pIC50: Homo sapiens, 72 h, LNCaP prostate cancer cell viability inhibition, 3 days
Summary of the method: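 Three-day treatment of LNCaP cells (5000 per well) across a 12-point, 3-fold dilution series starting at 10 μM. ATP luminescence (CellTiter-Glo) relative to untreated controls gave dose-response curves fitted nonlinearly for IC50.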

[1] = percentage of inhibition of p300 at 10 nM (Table 2)
[2] = percentage of inhibition of p300 at 10 nM (Table 3)

P300, sequence (Q09472 whole entry): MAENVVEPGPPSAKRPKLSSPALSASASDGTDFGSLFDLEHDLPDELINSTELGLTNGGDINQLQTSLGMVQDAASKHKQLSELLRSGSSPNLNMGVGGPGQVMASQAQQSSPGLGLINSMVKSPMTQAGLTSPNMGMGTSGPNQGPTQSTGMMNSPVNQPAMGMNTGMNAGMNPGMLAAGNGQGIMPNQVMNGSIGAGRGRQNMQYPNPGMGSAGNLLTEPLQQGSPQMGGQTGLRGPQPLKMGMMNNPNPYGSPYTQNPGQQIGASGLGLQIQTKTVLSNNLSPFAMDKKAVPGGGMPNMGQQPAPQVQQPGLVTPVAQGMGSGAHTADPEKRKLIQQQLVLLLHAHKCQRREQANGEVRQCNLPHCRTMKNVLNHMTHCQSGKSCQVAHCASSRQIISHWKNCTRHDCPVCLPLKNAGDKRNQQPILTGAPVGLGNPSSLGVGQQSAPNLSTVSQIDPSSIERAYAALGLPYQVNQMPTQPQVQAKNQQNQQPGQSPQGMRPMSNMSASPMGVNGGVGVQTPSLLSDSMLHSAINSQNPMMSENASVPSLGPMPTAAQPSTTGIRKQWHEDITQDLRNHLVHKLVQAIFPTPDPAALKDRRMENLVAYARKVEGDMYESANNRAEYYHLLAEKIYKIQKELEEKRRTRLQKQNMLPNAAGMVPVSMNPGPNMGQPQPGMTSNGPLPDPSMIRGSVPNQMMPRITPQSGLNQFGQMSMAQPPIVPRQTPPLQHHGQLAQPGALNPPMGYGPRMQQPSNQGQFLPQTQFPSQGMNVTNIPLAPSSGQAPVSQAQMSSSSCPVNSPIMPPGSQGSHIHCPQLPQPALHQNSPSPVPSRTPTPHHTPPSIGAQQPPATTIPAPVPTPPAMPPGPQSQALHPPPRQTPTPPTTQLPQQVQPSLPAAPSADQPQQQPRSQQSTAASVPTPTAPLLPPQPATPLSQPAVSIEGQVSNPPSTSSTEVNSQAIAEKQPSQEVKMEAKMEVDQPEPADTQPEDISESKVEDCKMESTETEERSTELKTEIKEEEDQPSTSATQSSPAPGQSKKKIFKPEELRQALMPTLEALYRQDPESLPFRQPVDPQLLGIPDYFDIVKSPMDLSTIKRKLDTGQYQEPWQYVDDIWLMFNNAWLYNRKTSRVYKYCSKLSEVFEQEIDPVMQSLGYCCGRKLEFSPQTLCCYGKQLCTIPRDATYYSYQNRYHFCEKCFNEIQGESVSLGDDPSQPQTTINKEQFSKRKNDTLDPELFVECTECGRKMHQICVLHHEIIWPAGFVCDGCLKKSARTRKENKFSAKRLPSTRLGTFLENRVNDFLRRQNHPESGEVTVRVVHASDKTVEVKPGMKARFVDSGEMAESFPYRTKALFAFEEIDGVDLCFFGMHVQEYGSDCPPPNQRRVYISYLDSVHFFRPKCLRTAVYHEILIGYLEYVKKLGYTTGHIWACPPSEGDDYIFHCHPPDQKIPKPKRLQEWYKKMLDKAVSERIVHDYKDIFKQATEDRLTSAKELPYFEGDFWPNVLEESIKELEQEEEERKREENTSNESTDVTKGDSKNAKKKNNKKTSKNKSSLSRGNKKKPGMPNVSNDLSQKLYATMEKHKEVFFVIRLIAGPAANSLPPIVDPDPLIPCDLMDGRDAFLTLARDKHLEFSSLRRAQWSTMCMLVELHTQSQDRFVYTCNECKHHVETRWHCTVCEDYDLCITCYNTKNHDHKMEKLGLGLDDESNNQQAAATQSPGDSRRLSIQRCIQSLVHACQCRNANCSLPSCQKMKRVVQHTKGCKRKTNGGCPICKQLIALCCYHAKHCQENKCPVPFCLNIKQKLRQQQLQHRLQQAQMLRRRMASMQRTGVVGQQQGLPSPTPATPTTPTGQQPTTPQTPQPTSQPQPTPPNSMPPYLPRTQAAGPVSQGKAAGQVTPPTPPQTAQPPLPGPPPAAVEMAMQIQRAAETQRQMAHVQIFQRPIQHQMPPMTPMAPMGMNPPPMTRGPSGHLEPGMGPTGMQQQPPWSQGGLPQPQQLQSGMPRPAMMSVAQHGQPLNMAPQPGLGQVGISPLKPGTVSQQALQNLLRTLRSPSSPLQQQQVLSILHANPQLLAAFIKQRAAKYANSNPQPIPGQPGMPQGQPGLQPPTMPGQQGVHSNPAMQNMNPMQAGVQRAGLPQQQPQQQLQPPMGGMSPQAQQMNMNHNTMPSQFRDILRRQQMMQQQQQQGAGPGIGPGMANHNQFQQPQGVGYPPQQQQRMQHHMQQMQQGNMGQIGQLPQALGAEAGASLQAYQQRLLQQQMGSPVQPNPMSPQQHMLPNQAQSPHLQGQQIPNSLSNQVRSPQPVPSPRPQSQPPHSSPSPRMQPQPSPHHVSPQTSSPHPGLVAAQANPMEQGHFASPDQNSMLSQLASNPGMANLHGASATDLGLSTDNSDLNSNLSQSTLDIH

Structure (SMILES): CNC(=O)N1CCc2c(c(N3CCCc4cc(-c5cnn(CC(=O)NCCCCCCNc6cccc7c6C(=O)N(C6CCC(=O)NC6=O)C7=O)c5)c(C(F)F)cc43)nn2C2CCOCC2)C1 (centres unmarked) [P-041, 3-(7-(difluoromethyl)-6-(1-(2-((6-((2-(2,6-dioxopiperidin-3-yl)-1,3-dioxoisoindolin-4-yl)amino)hexyl)amino)-2-oxoethyl)-1H-pyrazol-4-yl)-3,4-dihydroquinolin-1(2H)-yl)-N-methyl-1-(tetrahydro-2H-pyran-4-yl)-1,4,6,7-tetrahydro-5H-pyrazolo[4,3-c]pyridine-5-carboxamide]
inhibition at 0.01 µM (P300; [1]): 20 to 50%
pIC50 (LNCaP cells; CellTiter-Glo (Table 2)): 7.97

Structure (SMILES): CC(=O)N1CCc2c(c(N3CCCc4cc(-c5cnn(C)c5)c(C(F)F)cc43)nn2C2CCN(C(=O)CCC3CN(Cc4cccc5c4C(=O)N(C4CCC(=O)NC4=O)C5=O)C3)CC2)C1 (centres unmarked) [P-156, 4-((3-(3-(4-(5-Acetyl-3-(7-(difluoromethyl)-6-(1-methyl-1H-pyrazol-4-yl)-3,4-dihydroquinolin-1(2H)-yl)-4,5,6,7-tetrahydro-1H-pyrazolo[4,3-c]pyridin-1-yl)piperidin-1-yl)-3-oxopropyl)azetidin-1-yl)methyl)-2-(2,6-dioxopiperidin-3-yl)isoindoline-1,3-dione]
inhibition at 0.01 µM (P300; [2]): < 20%
pIC50 (LNCaP cells; CellTiter-Glo (Table 3)): < 6.30

Structure (SMILES): CC(=O)N1CCc2c(c(N3CCCc4cc(-c5cnn(C)c5)c(C(F)F)cc43)nn2C2CCN(C(=O)CN3CCC(CNc4cccc5c4C(=O)N(C4CCC(=O)NC4=O)C5=O)CC3)CC2)C1 (centres unmarked) [P-123, 4-(((1-(2-(4-(5-Acetyl-3-(7-(difluoromethyl)-6-(1-methyl-1H-pyrazol-4-yl)-3,4-dihydroquinolin-1(2H)-yl)-4,5,6,7-tetrahydro-1H-pyrazolo[4,3-c]pyridin-1-yl)piperidin-1-yl)-2-oxoethyl)piperidin-4-yl)methyl)amino)-2-(2,6-dioxopiperidin-3-yl)isoindoline-1,3-dione]
inhibition at 0.01 µM (P300; [2]): > 80%
pIC50 (LNCaP cells; CellTiter-Glo (Table 3)): 7.69

Structure (SMILES): CNC(=O)N1CCc2c(c(N3CCCc4cc(-c5cnn(C)c5)c(C(F)F)cc43)nn2C2CCN(C(=O)CCCCCCNc3cccc4c3C(=O)N(C3CCC(=O)NC3=O)C4=O)CC2)C1 (centres unmarked) [P-035, 3-(7-(difluoromethyl)-6-(1-methyl-1H-pyrazol-4-yl)-3,4-dihydroquinolin-1(2H)-yl)-1-(1-(7-((2-(2,6-dioxopiperidin-3-yl)-1,3-dioxoisoindolin-4-yl)amino)heptanoyl)piperidin-4-yl)-N-methyl-1,4,6,7-tetrahydro-5H-pyrazolo[4,3-c]pyridine-5-carboxamide]
inhibition at 0.01 µM (P300; [1]): > 80%
pIC50 (LNCaP cells; CellTiter-Glo (Table 2)): 9.15

Structure (SMILES): CNC(=O)N1CCc2c(c(N3CCCc4cc(-c5cnn(C)c5)c(C(F)F)cc43)nn2C2CCN(C(=O)CCCCCCNc3ccc4c(c3)C(=O)N(C3CCC(=O)NC3=O)C4=O)CC2)C1 (centres unmarked) [P-006, 3-(7-(difluoromethyl)-6-(1-methyl-1H-pyrazol-4-yl)-3,4-dihydroquinolin-1(2H)-yl)-1-(1-(7-((2-(2,6-dioxopiperidin-3-yl)-1,3-dioxoisoindolin-5-yl)amino)heptanoyl)piperidin-4-yl)-N-methyl-1,4,6,7-tetrahydro-5H-pyrazolo[4,3-c]pyridine-5-carboxamide]
inhibition at 0.01 µM (P300; [1]): > 80%
pIC50 (LNCaP cells; CellTiter-Glo (Table 2)): 8.49

Structure (SMILES): CNC(=O)N1CCc2c(c(N3CCCc4cc(-c5cnn(C)c5)c(C(F)F)cc43)nn2C2CCN(C(=O)CCCCCCc3cccc4c3C(=O)N(C3CCC(=O)NC3=O)C4)CC2)C1 (centres unmarked) [P-087, 3-(7-(Difluoromethyl)-6-(1-methyl-1H-pyrazol-4-yl)-3,4-dihydroquinolin-1(2H)-yl)-1-(1-(7-(2-(2,6-dioxopiperidin-3-yl)-3-oxoisoindolin-4-yl)heptanoyl)piperidin-4-yl)-N-methyl-1,4,6,7-tetrahydro-5H-pyrazolo[4,3-c]pyridine-5-carboxamide]
inhibition at 0.01 µM (P300; [2]): 20 to 50%
pIC50 (LNCaP cells; CellTiter-Glo (Table 3)): 7.90

Structure (SMILES): CNC(=O)N1CCc2c(c(N3CCCc4cc(-c5cnn(CC(=O)NCCCCCCCC(=O)N[C@H](C(=O)N6C[C@H](O)C[C@H]6C(=O)NCc6ccc(-c7scnc7C)cc6)C(C)(C)C)c5)c(C(F)F)cc43)nn2C2CCOCC2)C1 [P-048, 3-(7-(Difluoromethyl)-6-(1-(2-((8-(((S)-1-((2S,4R)-4-hydroxy-2-((4-(4-methylthiazol-5-yl)benzyl)carbamoyl)pyrrolidin-1-yl)-3,3-dimethyl-1-oxobutan-2-yl)amino)-8-oxooctyl)amino)-2-oxoethyl)-1H-pyrazol-4-yl)-3,4-dihydroquinolin-1(2H)-yl)-N-methyl-1-(tetrahydro-2H-pyran-4-yl)-1,4,6,7-tetrahydro-5H-pyrazolo[4,3-c]pyridine-5-carboxamide]
inhibition at 0.01 µM (P300; [1]): < 20%
pIC50 (LNCaP cells; CellTiter-Glo (Table 2)): 6.33

The next lines start with results.

inhibition at 0.01 µM (P300; [1]): 50 to 80%
pIC50 (LNCaP cells; CellTiter-Glo (Table 2)): 6.73
Structure (SMILES): CNC(=O)N1CCc2c(c(N3CCCc4cc(-c5cnn(C)c5)c(C(F)F)cc43)nn2C2CCN(C(=O)CNc3ccc4c(c3)C(=O)N(C3CCC(=O)NC3=O)C4=O)CC2)C1 (centres unmarked) [P-001, 3-(7-(Difluoromethyl)-6-(1-methyl-1H-pyrazol-4-yl)-3,4-dihydroquinolin-1(2H)-yl)-1-(1-((2-(2,6-dioxopiperidin-3-yl)-1,3-dioxoisoindolin-5-yl)glycyl)piperidin-4-yl)-N-methyl-1,4,6,7-tetrahydro-5H-pyrazolo[4,3-c]pyridine-5-carboxamide]
viability of LNCaP cells (LNCaP cells; from 10 μM, 12-point 3-fold serial dilution, 3 days (FIG. 4)): dose-dependently suppressed viability

inhibition at 0.01 µM (P300; [2]): < 20%
pIC50 (LNCaP cells; CellTiter-Glo (Table 3)): < 5.00
Structure (SMILES): CNC(=O)N1CCc2c(c(N3CCCc4cc(-c5cnn(CC(=O)NCCOCC(=O)N[C@H](C(=O)N6C[C@H](O)C[C@H]6C(=O)NCc6ccc(-c7scnc7C)cc6)C(C)(C)C)c5)c(C(F)F)cc43)nn2C2CCOCC2)C1 [P-073, 3-(7-(Difluoromethyl)-6-(1-(2-((2-(2-(((S)-1-((2S,4R)-4-hydroxy-2-((4-(4-methylthiazol-5-yl)benzyl)carbamoyl)pyrrolidin-1-yl)-3,3-dimethyl-1-oxobutan-2-yl)amino)-2-oxoethoxy)ethyl)amino)-2-oxoethyl)-1H-pyrazol-4-yl)-3,4-dihydroquinolin-1(2H)-yl)-N-methyl-1-(tetrahydro-2H-pyran-4-yl)-1,4,6,7-tetrahydro-5H-pyrazolo[4,3-c]pyridine-5-carboxamide]

inhibition at 0.01 µM (P300; [2]): 50 to 80%
pIC50 (LNCaP cells; CellTiter-Glo (Table 3)): 6.91
Structure (SMILES): CC(=O)N1CCc2c(c(N3CCCc4cc(-c5cnn(C)c5)c(C(F)F)cc43)nn2C2CCN(C(=O)CCCCCNc3cccc4nc(C)n(C5CCC(=O)NC5=O)c(=O)c34)CC2)C1 (centres unmarked) [P-165, 3-(5-((6-(4-(5-Acetyl-3-(7-(difluoromethyl)-6-(1-methyl-1H-pyrazol-4-yl)-3,4-dihydroquinolin-1(2H)-yl)-4,5,6,7-tetrahydro-1H-pyrazolo[4,3-c]pyridin-1-yl)piperidin-1-yl)-6-oxohexyl)amino)-2-methyl-4-oxoquinazolin-3(4H)-yl)piperidine-2,6-dione]

inhibition at 0.01 µM (P300; [2]): < 20%
pIC50 (LNCaP cells; CellTiter-Glo (Table 3)): 7.44
Structure (SMILES): CNC(=O)N1CCc2c(c(N3CCCc4cc(-c5cnn(C)c5)c(C(F)F)cc43)nn2C2CCN(C(=O)CCOCCOCCOCCC(=O)N[C@H](C(=O)N3C[C@H](O)C[C@H]3C(=O)NCc3ccc(-c4scnc4C)cc3)C(C)(C)C)CC2)C1 [P-069, 3-(7-(Difluoromethyl)-6-(1-methyl-1H-pyrazol-4-yl)-3,4-dihydroquinolin-1(2H)-yl)-1-(1-((S)-15-((2S,4R)-4-hydroxy-2-((4-(4-methylthiazol-5-yl)benzyl)carbamoyl)pyrrolidine-1-carbonyl)-16,16-dimethyl-13-oxo-4,7,10-trioxa-14-azaheptadecanoyl)piperidin-4-yl)-N-methyl-1,4,6,7-tetrahydro-5H-pyrazolo[4,3-c]pyridine-5-carboxamide]
